From patent US11286241B2, “Compositions and methods for treating cancer” (GLAX LLC, priority 2018, dated 2022)
“Also recorded” adds a separate entry of the source.

Columns and labels:
Gli pathway = Gli pathway in HCC (FIG. 13); assay type: cell-based
liver cancer xenograft = assay: Xenografted tumor growth, liver cancer model (FIG. 18); assay type: in vivo
[1] = tested on: prostate cancer PC-3 cells; assay: Apoptosis in prostate cancer cells (FIG. 14); assay type: cell-based
Gli reporter = Gli reporter activity (FIG. 12E); assay type: cell-based
[2] = tested on: pancreatic cancer xenograft; assay: Xenografted tumor growth, pancreatic cancer model (FIG. 18); assay type: in vivo
lung cancer A549 cells = assay: Apoptosis in lung cancer cells (FIG. 14); assay type: cell-based
human brain cancer cells = assay: Cell viability of human brain cancer cells (FIG. 15); assay type: cell-based
brain cancer stem cells = assay: Cell viability of brain cancer stem cells (FIG. 15); assay type: cell-based, human
human normal hepatocytes = assay: Cell viability of normal hepatocytes (FIG. 13); assay type: cell-based
liver cancer HEP3B cells = assay: Combination apoptosis in liver cancer HEP3B cells; assay type: cell-based; settings: with PF05212384, listed as SST7
[3] = tested on: prostate cancer DU145 cells; assay: Combination apoptosis in prostate cancer DU145 cells; assay type: cell-based; settings: with PF05212384
[4] = tested on: prostate cancer xenograft; assay: Xenografted tumor growth, prostate cancer model (FIG. 18); assay type: in vivo
[5] = tested on: human normal ductal epithelial (HMEC) cells; assay: Cell viability of normal ductal epithelial cells (FIG. 12D); assay type: cell-based
[6] = tested on: Gli1, Patched-1, Cyclin D1, Bcl-2, and Nanog; assay: Expression of Gli target genes in breast cancer cells (FIG. 12F); assay type: cell-based
breast cancer xenograft = assay: Xenografted tumor growth, breast cancer model (FIG. 18); assay type: in vivo
pancreatic cancer cells = assay: Combination cell viability in pancreatic cancer cells (FIG. 17); assay type: cell-based, human
[7] = tested on: human breast cancer cells; assay: Combination cell viability in human breast cancer cells (FIG. 17); assay type: cell-based
[8] = tested on: pancreatic cancer AsPC-1 cells; assay: Apoptosis in pancreatic cancer AsPC-1 cells; assay type: cell-based
[9] = tested on: human breast cancer cells; assay: Cell viability of human breast cancer cells (FIG. 12D); assay type: cell-based
liver cancer HEPG2 cells = assay: Apoptosis in liver cancer HEPG2 cells; assay type: cell-based
[10] = tested on: human normal pancreatic ductal epithelial (HPNE) cells; assay: Cell viability of normal pancreatic ductal epithelial cells (FIG. 12C); assay type: cell-based
[11] = tested on: human pancreatic cancer cells; assay: Cell viability of human pancreatic cancer cells (FIG. 12A, B); assay type: cell-based
[12] = tested on: colorectal cancer HCT116 cells; assay: Combination apoptosis in colorectal cancer HCT116 cells; assay type: cell-based; settings: with PF05212384, listed as SST7
[13] = tested on: prostate cancer PC-3 cells; assay: Combination apoptosis in prostate cancer PC-3 cells; assay type: cell-based; settings: with PF05212384
[14] = tested on: hepatocarcinoma (HCC)/liver cancer cells; assay: Cell viability of hepatocarcinoma cells (FIG. 13); assay type: cell-based
[15] = tested on: human prostate cancer cells; assay: Combination cell viability in human prostate cancer cells (FIG. 16); assay type: cell-based; settings: with PF05212384 (PI3K/mTOR dual inhibitor)
[16] = with histone deacetylase inhibitor SAHA

OC(CNc1ccc(Cl)cc1)CNc1ccc(-c2nc3ccccc3o2)cc1 (stereo not shown) [Compound 8, 1-(4-(benzo[d]oxazol-2-yl)phenylamino)-3-(4-chlorophenylamino)propane-2-ol]
Gli pathway (Gli pathway): inhibits Gli pathway
xenografted tumor growth (liver cancer xenograft): inhibits xenografted tumor growth
apoptosis [1]: induces apoptosis
Gli reporter activity (Gli reporter): inhibits
xenografted tumor growth [2]: inhibits xenografted tumor growth
apoptosis (lung cancer A549 cells): induces apoptosis
cell viability (human brain cancer cells): inhibits cell viability
cell viability (brain cancer stem cells): inhibits cell viability
cell viability (human normal hepatocytes): has no effect
apoptosis, combination (liver cancer HEP3B cells): synergistic; also recorded: act in a cooperative manner to induce apoptosis
apoptosis, combination [3]: act in a cooperative manner to induce apoptosis
xenografted tumor growth [4]: inhibits xenografted tumor growth
cell viability [5]: has no effect
expression of Gli1, Patched-1, Cyclin D1, Bcl-2, and Nanog [6]: inhibits
xenografted tumor growth (breast cancer xenograft): inhibits xenografted tumor growth
cell viability, combination (pancreatic cancer cells; with PF05212384): co-operates
cell viability, combination (pancreatic cancer cells; [16]): co-operates
cell viability, combination ([7]; with PF05212384): co-operates
cell viability, combination [7, 16]: co-operates
apoptosis [8]: induces apoptosis
cell viability [9]: inhibits cell viability
apoptosis (liver cancer HEPG2 cells): induces apoptosis
cell viability [10]: has no effect
cell viability [11]: inhibits cell viability
apoptosis, combination [12]: synergistic; also recorded: act in a cooperative manner to induce apoptosis
apoptosis, combination [13]: act in a cooperative manner to induce apoptosis
cell viability [14]: inhibits cell viability
cell viability, combination [15]: co-operates
